Format in all cases: functional, organism-based
In assay [1] the test system is Plasmodium falciparum. The assay is described as follows: Antimalarial activity against chloroquine-sensitive Plasmodium falciparum D6 assessed as inhibition of [3H]hypoxanthine incorporation after 96 hrs by microtiter plate scintillation counting.
The subject of assay [2] is Plasmodium falciparum. Briefly: Antimalarial activity against chloroquine-,pyrimethamine-resistant Plasmodium falciparum W2 assessed as inhibition of [3H]hypoxanthine incorporation after 96 hrs by microtiter plate scintillation counting.
For assay [3], the system named is Plasmodium falciparum. Briefly: Antimalarial activity against multidrug-resistant Plasmodium falciparum TM91C235 assessed as inhibition of [3H]hypoxanthine incorporation after 96 hrs by microtiter plate scintillation counting.

The values below come from ChEMBL document CHEMBL1681728, “An automated, polymer-assisted strategy for the preparation of urea and thiourea derivatives of 15-membered azalides as potential antimalarial chemotherapeutics” (Bioorg Med Chem, 2011).

Molecules are shown by their SMILES.

`CC[C@H]1OC(=O)[C@H](C)[C@@H](O[C@H]2C[C@@](C)(OC)[C@@H](O)[C@H](C)O2)[C@H](C)[C@@H](O[C@@H]2O[C@H](C)C[C@H](N(C)C)[C@H]2O)[C@](C)(O)C[C@@H](C)CN(CCCNC(=O)Nc2ccc3c(c2)OCO3)[C@H](C)[C@@H](O)[C@]1(C)O`: the IC50 (usually the midpoint of a concentration-inhibition curve) in assay [1] is 0.835 µM; in assay [2], 0.111 µM; in assay [3] it was 0.265 µM.
For the compound `CC[C@H]1OC(=O)[C@H](C)[C@@H](O[C@H]2C[C@@](C)(OC)[C@@H](O)[C@H](C)O2)[C@H](C)[C@@H](O[C@@H]2O[C@H](C)C[C@H](N(C)C)[C@H]2O)[C@](C)(O)C[C@@H](C)CN(CCCNC(=S)NCCCN(CC)CC)[C@H](C)[C@@H](O)[C@]1(C)O`, the IC50 turned out to be 0.794 µM in assay [1], 3.13 µM in assay [2] and 12.4 µM in assay [3].
For `CC[C@H]1OC(=O)[C@H](C)[C@@H](O[C@H]2C[C@@](C)(OC)[C@@H](O)[C@H](C)O2)[C@H](C)[C@@H](O[C@@H]2O[C@H](C)C[C@H](N(C)C)[C@H]2O)[C@](C)(O)C[C@@H](C)CN(CCCNC(=O)NC2CCCC2)[C@H](C)[C@@H](O)[C@]1(C)O`, in that order: 6.02 µM, 0.277 µM and 0.616 µM.
`CCCCNC(=S)NCCCN1C[C@H](C)C[C@@](C)(O)[C@H](O[C@@H]2O[C@H](C)C[C@H](N(C)C)[C@H]2O)[C@@H](C)[C@H](O[C@H]2C[C@@](C)(OC)[C@@H](O)[C@H](C)O2)[C@@H](C)C(=O)O[C@H](CC)[C@@](C)(O)[C@H](O)[C@H]1C`: the IC50 in assay [1] is 0.655 µM; in assay [2] it was 0.188 µM; in assay [3], 0.382 µM.
In the case of `CC[C@H]1OC(=O)[C@H](C)[C@@H](O[C@H]2C[C@@](C)(OC)[C@@H](O)[C@H](C)O2)[C@H](C)[C@@H](O[C@@H]2O[C@H](C)C[C@H](N(C)C)[C@H]2O)[C@](C)(O)C[C@@H](C)CN(CCCNC(=S)NCC2CC3CCC2C3)[C@H](C)[C@@H](O)[C@]1(C)O` (stereo partly specified), the IC50 was determined as 0.249 µM in assay [1], 0.0465 µM in assay [2] and 0.102 µM in assay [3].
The like results for `CC[C@H]1OC(=O)[C@H](C)[C@@H](O[C@H]2C[C@@](C)(OC)[C@@H](O)[C@H](C)O2)[C@H](C)[C@@H](O[C@@H]2O[C@H](C)C[C@H](N(C)C)[C@H]2O)[C@](C)(O)C[C@@H](C)CN(CCCNC(=S)Nc2ccc(-n3cccn3)cc2)[C@H](C)[C@@H](O)[C@]1(C)O` were, in that order, 0.16 µM, 0.109 µM and 0.101 µM.
The like results for `CC[C@H]1OC(=O)[C@H](C)[C@@H](O[C@H]2C[C@@](C)(OC)[C@@H](O)[C@H](C)O2)[C@H](C)[C@@H](O[C@@H]2O[C@H](C)C[C@H](N(C)C)[C@H]2O)[C@](C)(O)C[C@@H](C)CN(CCCNC(=O)Nc2ccc3c(c2)CCO3)[C@H](C)[C@@H](O)[C@]1(C)O` were, in that order, 2.05 µM, 1.59 µM and 0.923 µM.
Regarding `CC[C@H]1OC(=O)[C@H](C)[C@@H](O[C@H]2C[C@@](C)(OC)[C@@H](O)[C@H](C)O2)[C@H](C)[C@@H](O[C@@H]2O[C@H](C)C[C@H](N(C)C)[C@H]2O)[C@](C)(O)C[C@@H](C)CN(CCCNC(=O)Nc2cccc(F)c2)[C@H](C)[C@@H](O)[C@]1(C)O`, the IC50 in assay [1] was found to be 0.58 µM; in assay [2], 0.285 µM; in assay [3], 0.164 µM.
`CC[C@H]1OC(=O)[C@H](C)[C@@H](O[C@H]2C[C@@](C)(OC)[C@@H](O)[C@H](C)O2)[C@H](C)[C@@H](O[C@@H]2O[C@H](C)C[C@H](N(C)C)[C@H]2O)[C@](C)(O)C[C@@H](C)CN(CCCNC(=S)Nc2c(F)cccc2F)[C@H](C)[C@@H](O)[C@]1(C)O`: the figures for the IC50 in assay [1], in assay [2] and in assay [3] were 0.509 µM, 0.0863 µM and 0.188 µM, respectively.
The like results for `CCNC(=O)NCCCN1C[C@H](C)C[C@@](C)(O)[C@H](O[C@@H]2O[C@H](C)C[C@H](N(C)C)[C@H]2O)[C@@H](C)[C@H](O[C@H]2C[C@@](C)(OC)[C@@H](O)[C@H](C)O2)[C@@H](C)C(=O)O[C@H](CC)[C@@](C)(O)[C@H](O)[C@H]1C` were, in that order, 13.7 µM, 13.7 µM and 1.98 µM.
With `CC[C@H]1OC(=O)[C@H](C)[C@@H](O[C@H]2C[C@@](C)(OC)[C@@H](O)[C@H](C)O2)[C@H](C)[C@@H](O[C@@H]2O[C@H](C)C[C@H](N(C)C)[C@H]2O)[C@](C)(O)C[C@@H](C)CN(CCCNC(=O)NC2CCN(C(=O)OCc3ccccc3)CC2)[C@H](C)[C@@H](O)[C@]1(C)O`, the IC50 in assay [1] is 0.635 µM; in assay [2] it was 0.276 µM; in assay [3], 0.236 µM.
As to `CC[C@H]1OC(=O)[C@H](C)[C@@H](O[C@H]2C[C@@](C)(OC)[C@@H](O)[C@H](C)O2)[C@H](C)[C@@H](O[C@@H]2O[C@H](C)C[C@H](N(C)C)[C@H]2O)[C@](C)(O)C[C@@H](C)CN(CCCNC(=S)Nc2cccc(-c3ccccc3)c2OC)[C@H](C)[C@@H](O)[C@]1(C)O`, the results for the IC50 in assay [1], in assay [2] and in assay [3] were 0.0581 µM, 0.114 µM and 0.0553 µM, respectively.
The like results for `CC[C@H]1OC(=O)[C@H](C)[C@@H](O[C@H]2C[C@@](C)(OC)[C@@H](O)[C@H](C)O2)[C@H](C)[C@@H](O[C@@H]2O[C@H](C)C[C@H](N(C)C)[C@H]2O)[C@](C)(O)C[C@@H](C)CN(CCCNC(=O)Nc2cc(F)cc3c2OCOC3)[C@H](C)[C@@H](O)[C@]1(C)O` were, in that order, 0.284 µM, 0.306 µM and 0.22 µM.
The like results for `CC[C@H]1OC(=O)[C@H](C)[C@@H](O[C@H]2C[C@@](C)(OC)[C@@H](O)[C@H](C)O2)[C@H](C)[C@@H](O[C@@H]2O[C@H](C)C[C@H](N(C)C)[C@H]2O)[C@](C)(O)C[C@@H](C)CN(CCCNC(=S)Nc2ccc(/N=N/c3ccccc3)cc2)[C@H](C)[C@@H](O)[C@]1(C)O` were, in that order, 0.107 µM, 0.0479 µM and 0.0963 µM.
The like results for `CC[C@H]1OC(=O)[C@H](C)[C@@H](O[C@H]2C[C@@](C)(OC)[C@@H](O)[C@H](C)O2)[C@H](C)[C@@H](O[C@@H]2O[C@H](C)C[C@H](N(C)C)[C@H]2O)[C@](C)(O)C[C@@H](C)CN(CCCNC(=O)Nc2ccc(C)cc2)[C@H](C)[C@@H](O)[C@]1(C)O` were, in that order, 0.33 µM, 0.0887 µM and 0.139 µM.
Regarding `CC[C@H]1OC(=O)[C@H](C)[C@@H](O[C@H]2C[C@@](C)(OC)[C@@H](O)[C@H](C)O2)[C@H](C)[C@@H](O[C@@H]2O[C@H](C)C[C@H](N(C)C)[C@H]2O)[C@](C)(O)C[C@@H](C)CN(CCCNC(=S)NCCCl)[C@H](C)[C@@H](O)[C@]1(C)O`, the IC50 in assay [1], in assay [2] and in assay [3] was 12.8 µM in each case.
Regarding `CC[C@H]1OC(=O)[C@H](C)[C@@H](O[C@H]2C[C@@](C)(OC)[C@@H](O)[C@H](C)O2)[C@H](C)[C@@H](O[C@@H]2O[C@H](C)C[C@H](N(C)C)[C@H]2O)[C@](C)(O)C[C@@H](C)CN(CCCNC(=S)Nc2ccc(F)cc2)[C@H](C)[C@@H](O)[C@]1(C)O`, the IC50 worked out at 0.32 µM in assay [1], 0.0728 µM in assay [2] and 0.139 µM in assay [3].
